Measurements reported in patent US5385894A, “Disubstituted 6-aminoquinazolinones” (Merck & Co., Inc., priority 1994, dated 1995).

Test system: not listed separately
Assay: log P (Table 1)
Type: physicochemical
Settings: not given

First: CCc1nc2ccc(N(Cc3ccccc3)C(=O)c3ccco3)cc2c(=O)n1Cc1ccc(-c2ccccc2-c2nnn[nH]2)cc1 [Example 122]
Second: CCCc1nc2ccc(N(Cc3ccccc3)C(=O)c3cccnc3)cc2c(=O)n1Cc1ccc(-c2ccccc2-c2nnn[nH]2)cc1 [Example 134]
The logP of the first is higher: 3.9 for the first, 3.7 for the second.

Compared with `CCCc1nc2ccc(N(CC)C(=O)c3cccs3)cc2c(=O)n1Cc1ccc(-c2ccccc2-c2nnn[nH]2)cc1` [Example 124], `CCCc1nc2ccc(N(CC)C(=O)c3ccco3)cc2c(=O)n1Cc1ccc(-c2ccccc2-c2nnn[nH]2)cc1` [Example 125] is lower in logP: 3.8 for the first, 3.5 for the second.

First: CCCc1nc2ccc(N(Cc3ccccc3)C(=O)c3ccccc3OC)cc2c(=O)n1Cc1ccc(-c2ccccc2-c2nn[nH]n2)cc1 [Example 126]
Second: CCCc1nc2ccc(N(Cc3ccccc3)C(=O)c3ccccc3Oc3ccccc3)cc2c(=O)n1Cc1ccc(-c2ccccc2-c2nn[nH]n2)cc1 [Example 178]
The logP of the first is higher: 5 for the first, 4.2 for the second.

Going from `CCCc1nc2ccc(N(CCC)C(=O)c3ccccc3OC)cc2c(=O)n1Cc1ccc(-c2ccccc2-c2nnn[nH]2)cc1` [Example 127] to `CCCc1nc2ccc(N(CCC)C(=O)c3ccc(O)cc3)cc2c(=O)n1Cc1ccc(-c2ccccc2-c2nnn[nH]2)cc1` [Example 131], the logP falls from 4.1 to 3.8.

First: CCCCCN(C(=O)c1ccc(OCc2ccccc2)cc1)c1ccc2nc(CCC)n(Cc3ccc(-c4ccccc4-c4nnn[nH]4)cc3)c(=O)c2c1 [Example 128]
Second: CCCc1nc2ccc(N(CCC)C(=O)c3ccc(OCc4ccccc4)cc3)cc2c(=O)n1Cc1ccc(-c2ccccc2-c2nnn[nH]2)cc1 [Example 129]
The logP of the first is higher: greater than 5.7 for the first, 5.5 for the second.

First: CCCCCN(C(=O)c1ccc(O)cc1)c1ccc2nc(CCC)n(Cc3ccc(-c4ccccc4-c4nnn[nH]4)cc3)c(=O)c2c1 [Example 130]
Second: CCCCN(C(=O)c1ccc(O)cc1)c1ccc2nc(CCC)n(Cc3ccc(-c4ccccc4-c4nn[nH]n4)cc3)c(=O)c2c1 [Example 144]
The logP of the first is higher: 4.7 for the first, 4.2 for the second.

`CCCc1nc2ccc(N(Cc3ccccc3)C(=O)Cn3ccnc3)cc2c(=O)n1Cc1ccc(-c2ccccc2-c2nn[nH]n2)cc1` [Example 132] and `CCCc1nc2ccc(N(Cc3ccccc3)C(=O)c3ccncc3)cc2c(=O)n1Cc1ccc(-c2ccccc2-c2nn[nH]n2)cc1` [Example 139] are within 0.2 log units of each other in logP: 3.6 for the first, 3.7 for the second.

First: CCCc1nc2ccc(N(Cc3ccccc3)C(=O)CN3CCN(C(=O)OC(C)(C)C)CC3)cc2c(=O)n1Cc1ccc(-c2ccccc2-c2nnn[nH]2)cc1 [Example 133]
Second: CCCc1nc2ccc(N(Cc3ccccc3)C(=O)c3ccc(C(=O)O)cc3)cc2c(=O)n1Cc1ccc(-c2ccccc2-c2nn[nH]n2)cc1 [Example 180]
The logP of the first is higher: 5.3 for the first, 2.9 for the second.

Going from `CCCc1nc2ccc(N(Cc3ccccn3)C(=O)Oc3ccccc3)cc2c(=O)n1Cc1ccc(-c2ccccc2-c2nn[nH]n2)cc1` [Example 135] to `CCCc1nc2ccc(N(Cc3ccccn3)C(=O)c3ccccc3)cc2c(=O)n1Cc1ccc(-c2ccccc2-c2nn[nH]n2)cc1` [Example 137], the logP falls from 3.6 to 3.4.

Compared with `CCCc1nc2ccc(N(Cc3ccccc3)C(=O)c3ccccn3)cc2c(=O)n1Cc1ccc(-c2ccccc2-c2nn[nH]n2)cc1` [Example 136], `CCCc1nc2ccc(N(Cc3ccncc3)C(=O)c3ccccc3)cc2c(=O)n1Cc1ccc(-c2ccccc2-c2nn[nH]n2)cc1` [Example 138] is lower in logP: 3.8 for the first, 3.4 for the second.

First: CCCc1nc2ccc(N(Cc3ccccn3)C(=O)c3ccncc3)cc2c(=O)n1Cc1ccc(-c2ccccc2-c2nn[nH]n2)cc1 [Example 145]
Second: CCCc1nc2ccc(N(Cc3ccccn3)C(=O)c3ccco3)cc2c(=O)n1Cc1ccc(-c2ccccc2-c2nn[nH]n2)cc1 [Example 148]
The logP of the first is lower: 2.7 for the first, 3.2 for the second.

First: CCCCCN(C(=O)c1ccc(OP(=O)(O)O)cc1)c1ccc2nc(CCC)n(Cc3ccc(-c4ccccc4-c4nn[nH]n4)cc3)c(=O)c2c1 [Example 146]
Second: CCCOC(=O)N(Cc1ccc(N)cc1)c1ccc2nc(CCC)n(Cc3ccc(-c4ccccc4-c4nn[nH]n4)cc3)c(=O)c2c1 [Example 166]
The logP of the first is lower: 3.4 for the first, 3.9 for the second.

Compared with `CCCc1nc2ccc(N(Cc3ccccc3)C(=O)c3ccc(O)cc3)cc2c(=O)n1Cc1ccc(-c2ccccc2-c2nn[nH]n2)cc1` [Example 147], `CCCc1nc2ccc(N(Cc3ccc(O)cc3)C(=O)c3ccccc3)cc2c(=O)n1Cc1ccc(-c2ccccc2-c2nn[nH]n2)cc1` [Example 179] is lower in logP: 4 for the first, 3.6 for the second.

Going from `CCCOC(=O)N(Cc1ccncc1)c1ccc2nc(CCC)n(Cc3ccc(-c4ccccc4-c4nn[nH]n4)cc3)c(=O)c2c1` [Example 156] to `CCCc1nc2ccc(N(Cc3ccncc3)C(=O)OCCOC)cc2c(=O)n1Cc1ccc(-c2ccccc2-c2nn[nH]n2)cc1` [Example 160], the logP falls from 3.8 to 2.7.

`CCCOC(=O)N(Cc1cccnc1)c1ccc2nc(CCC)n(Cc3ccc(-c4ccccc4-c4nn[nH]n4)cc3)c(=O)c2c1` [Example 158] and `CCCOC(=O)N(Cc1ccccn1)c1ccc2nc(CCC)n(Cc3ccc(-c4ccccc4-c4nn[nH]n4)cc3)c(=O)c2c1` [Example 159] are within 0.2 log units of each other in logP: 3.8 for the first, 3.9 for the second.

Going from `COCc1nc2ccc(N(C)C(=O)OCC(C)C)cc2c(=O)n1Cc1ccc(-c2ccccc2-c2nn[nH]n2)cc1` [Example 161] to `CCCOC(=O)N(Cc1ccccn1)c1ccc2nc(COC)n(Cc3ccc(-c4ccccc4-c4nn[nH]n4)cc3)c(=O)c2c1` [Example 162], the logP falls from 3.7 to 3.3.

Compared with `CCCc1nc2ccc(N(Cc3ccccn3)C(=O)OCC)cc2c(=O)n1Cc1ccc(-c2ccccc2-c2nn[nH]n2)cc1` [Example 164], `CCCc1nc2ccc(N(Cc3ccccn3)C(=O)N(C)C(C)C)cc2c(=O)n1Cc1ccc(-c2ccccc2-c2nn[nH]n2)cc1` [Example 175] is higher in logP: 3.5 for the first, 3.7 for the second.

Compared with `CCCc1nc2ccc(N(Cc3ccc(F)cc3)C(=O)N(C)C(C)C)cc2c(=O)n1Cc1ccc(-c2ccccc2-c2nn[nH]n2)cc1` [Example 174], `CCCc1nc2ccc(N(Cc3ccc(C(=O)O)cc3)C(=O)c3ccccc3)cc2c(=O)n1Cc1ccc(-c2ccccc2-c2nn[nH]n2)cc1` [Example 182] is lower in logP: 4.8 for the first, 2.4 for the second.

Going from `CCCc1nc2ccc(N(Cc3cccnc3)C(=O)c3ccc(O)cc3)cc2c(=O)n1Cc1ccc(-c2ccccc2-c2nn[nH]n2)cc1` [Example 181] to `CCCc1nc2ccc(N(Cc3ccc(C(=O)OC)cc3)C(=O)c3ccccc3)cc2c(=O)n1Cc1ccc(-c2ccccc2-c2nn[nH]n2)cc1` [Example 183], the logP rises from 2.8 to 4.4.

In the case of `CCCc1nc2ccc(N(Cc3ccccc3)C(=O)c3ccccn3)cc2c(=O)n1Cc1ccc(-c2ccccc2-c2nn[nH]n2)cc1` [Example 140], the “log P” value is reported as 3.7.

Test system: male Sprague-Dawley rats
Assay: not given
Settings: rat; cited from earlier work

In the case of `CN1C(=O)CN=C(c2ccccc2)c2cc(Cl)ccc21` [Diazepam], the “activity in CER assay” value is given as “active”.

Test system: rats pretreated with scopolamine
Assay: not given
Settings: cited from earlier work

For `CNC(=O)Oc1ccc2c(c1)[C@]1(C)CCN(C)[C@@H]1N2C` [physostigmine], the “activity in rat passive avoidance assay” value is listed as “active”.
